These results are taken from ChEMBL document CHEMBL4665792 (J Med Chem, 2020).

A short description of experiment [1]: Inhibition of TrxR in human HT-29 cells incubated for 90 mins in presence of insulin, NADPH and Trx by DTNB reagent based assay. The experiment is classed as cell-based.
Experiment [2] in a line: Inhibition of TrxR in human HT-29 cells incubated for 60 mins in presence of insulin, NADPH and Trx by DTNB reagent based assay. It counts as cell-based.
The nature of experiment [3]: Inhibition of TrxR in human HT-29 cells incubated for 30 mins in presence of insulin, NADPH and Trx by DTNB reagent based assay. The experiment is classed as cell-based.
Experiment [4] relates to MCF7. The experiment is described as follows: Antiproliferative activity against human MCF7 cells assessed as reduction in cell viability incubated for 24 hrs by MTT assay. It counts as functional, cell-based. To be noted: MCF7, 24 h.
For experiment [5], the system named is HT-29. The experiment is described as follows: Antiproliferative activity against human HT-29 cells assessed as reduction in cell viability incubated for 24 hrs by MTT assay. The experiment is classed as functional, cell-based. Conditions: HT-29, 24 h.
Experiment [6] relates to HepG2. The experiment is described as follows: Antiproliferative activity against human HepG2 cells assessed as reduction in cell viability incubated for 24 hrs by MTT assay. The experiment is classed as functional, cell-based. To be noted: HepG2, 24 h.
Experiment [7] deals with HCT-116. The experiment is described as follows: Antiproliferative activity against human HCT-116 cells assessed as reduction in cell viability incubated for 24 hrs by MTT assay. The experiment is classed as functional, cell-based. Conditions: HCT-116, 24 h.
For experiment [8], the system named is HK-2. The experiment is described as follows: Cytotoxicity against human HK2 cells assessed as cell viability incubated for 24 hrs by MTT assay. The experiment is classed as cell-based. Conditions: HK-2, 24 h.
For experiment [9], the system named is L02. The experiment in a line: Cytotoxicity against human L02 cells assessed as cell viability incubated for 24 hrs by MTT assay. The experiment is classed as cell-based. Conditions: L02, 24 h.

Turning to `CC(=O)O[C@H]1C=C([C@H](C)[C@H]2CC(C)=C(C)C(=O)O2)[C@@]2(C)CC[C@H]3[C@@H](C[C@H]4O[C@]45[C@@H](OC(=O)CCC(=O)N(C)C)C=CC(=O)[C@]35C)[C@]12O`, the figures for the IC50 in experiment [1], in experiment [2] and in experiment [3] were 2150 nM, 2910 nM and 3810 nM, respectively.
Take `C=CC(=O)O[C@H]1C=CC(=O)[C@]2(C)[C@H]3CC[C@]4(C)C([C@H](C)[C@H]5CC(C)=C(C)C(=O)O5)=C[C@H](OC(C)=O)[C@@]4(O)[C@@H]3C[C@H]3O[C@]132`: the IC50 in experiment [1] amounted to 2060 nM; in experiment [4], 1060 nM; in [2], 2850 nM; in experiment [5] it was 780 nM; in experiment [6], 520 nM; in experiment [7] it was 330 nM. The IC50 in experiment [3] was found to be 3910 nM.
On to `CC(=O)O[C@H]1C=C([C@H](C)[C@H]2CC(C)=C(C)C(=O)O2)[C@@]2(C)CC[C@H]3[C@@H](C[C@H]4O[C@]45[C@@H](OC(=O)/C=C/C(=O)N4CCOCC4)C=CC(=O)[C@]35C)[C@]12O`, for which the IC50 turned out to be 760 nM in [4], 430 nM in experiment [5], 370 nM in experiment [6] and 460 nM in experiment [7].
In the same order, the values of `CCO/C=C/C(=O)O[C@H]1C=CC(=O)[C@]2(C)[C@H]3CC[C@]4(C)C([C@H](C)[C@H]5CC(C)=C(C)C(=O)O5)=C[C@H](OC(C)=O)[C@@]4(O)[C@@H]3C[C@H]3O[C@]132` are 1210 nM, 590 nM, 570 nM and 670 nM.
In the same order, the values of `CCN(C)C(=O)O[C@H]1C=CC(=O)[C@]2(C)[C@H]3CC[C@]4(C)C([C@H](C)[C@H]5CC(C)=C(C)C(=O)O5)=C[C@H](OC(C)=O)[C@@]4(O)[C@@H]3C[C@H]3O[C@]132` are 1790 nM, 1780 nM, 2370 nM and 1970 nM.
In the same order, the values of `CC(=O)O[C@H]1C=C([C@H](C)[C@H]2CC(C)=C(C)C(=O)O2)[C@@]2(C)CC[C@H]3[C@@H](C[C@H]4O[C@]45[C@@H](OC(=O)/C=C/c4cccs4)C=CC(=O)[C@]35C)[C@]12O` are 630 nM, 430 nM, 530 nM and 380 nM.
Regarding `CC(=O)O[C@H]1[C@@H]2O[C@]2([C@H](C)[C@H]2CC(C)=C(C)C(=O)O2)[C@@]2(C)CC[C@H]3[C@@H](C[C@H]4O[C@]45[C@@H](O)C=CC(=O)[C@]35C)[C@]12O`, the IC50 in [4] turned out to be 9360 nM; in [5] it was 4550 nM; in [6], 4660 nM; in [7], 5040 nM.
For `CC(=O)O[C@H]1C=C([C@H](C)[C@H]2CC(C)=C(C)C(=O)O2)[C@@]2(C)CC[C@H]3[C@@H](C[C@H]4O[C@]45[C@@H](O)C(n4ccnc4)CC(=O)[C@]35C)[C@]12O` (stereo partly specified), in that order: > 20000 nM, > 20000 nM, > 20000 nM and > 20000 nM.
In the case of `CCC(=O)O[C@H]1C=CC(=O)[C@]2(C)[C@H]3CC[C@]4(C)C([C@H](C)[C@H]5CC(C)=C(C)C(=O)O5)=C[C@H](OC(C)=O)[C@@]4(O)[C@@H]3C[C@H]3O[C@]132`, the IC50 in experiment [4] worked out at 4810 nM; in [5], 1080 nM; in experiment [6] it was 1660 nM; in [7], 570 nM.
In the same order, the values of `C/C=C/C=C/C(=O)O[C@H]1C=CC(=O)[C@]2(C)[C@H]3CC[C@]4(C)C([C@H](C)[C@H]5CC(C)=C(C)C(=O)O5)=C[C@H](OC(C)=O)[C@@]4(O)[C@@H]3C[C@H]3O[C@]132` are 2620 nM, 1420 nM, 1520 nM and 1350 nM.
Turning to `CC(=O)O[C@H]1C=C([C@H](C)[C@H]2CC(C)=C(C)C(=O)O2)[C@@]2(C)CC[C@H]3[C@@H](C[C@H]4O[C@]45[C@@H](OC(=O)C(NC(=O)OC(C)(C)C)C(C)C)C=CC(=O)[C@]35C)[C@]12O` (stereo partly specified), the IC50 in experiment [4] turned out to be 3050 nM; in experiment [5], 800 nM; in experiment [6], 1570 nM; in experiment [7], 600 nM.
For `COC(=O)O[C@H]1C=CC(=O)[C@]2(C)[C@H]3CC[C@]4(C)C([C@H](C)[C@H]5CC(C)=C(C)C(=O)O5)=C[C@H](OC(C)=O)[C@@]4(O)[C@@H]3C[C@H]3O[C@]132`, in that order: 4330 nM, 1790 nM, 2810 nM and 1950 nM.
For `CC(=O)O[C@H]1C=C([C@H](C)[C@H]2CC(C)=C(C)C(=O)O2)[C@@]2(C)CC[C@H]3[C@@H](C[C@H]4O[C@]45[C@@H](OC(=O)/C=C/c4ccc(F)cc4)C=CC(=O)[C@]35C)[C@]12O`, in that order: 1580 nM, 720 nM, 610 nM and 1030 nM.
For `CCN(CC)C(=O)O[C@H]1C=CC(=O)[C@]2(C)[C@H]3CC[C@]4(C)C([C@H](C)[C@H]5CC(C)=C(C)C(=O)O5)=C[C@H](OC(C)=O)[C@@]4(O)[C@@H]3C[C@H]3O[C@]132`, in that order: 1210 nM, 750 nM, 690 nM and 430 nM.
Consider `CC(=O)O[C@H]1C=C([C@H](C)[C@H]2CC(C)=C(C)C(=O)O2)[C@@]2(C)CC[C@H]3[C@@H](C[C@H]4O[C@]45[C@@H](OC(=O)C(C)NC(=O)OC(C)(C)C)C=CC(=O)[C@]35C)[C@]12O` (stereo partly specified), for which the IC50 in experiment [4] is 4330 nM; in experiment [5] it was 1790 nM; in experiment [6] it was 2810 nM; in [7], 1950 nM.
On to `O=c1c(O)c(-c2cc(O)c(O)c(O)c2)oc2cc(O)cc(O)c12` [MYRICETIN], for which the IC50 was 650 nM in [1]; > 20000 nM in [4]; 720 nM in experiment [2]; > 20000 nM in [5]; > 20000 nM in experiment [6]; > 20000 nM in [7]. The IC50 in experiment [3] was 930 nM; in [8] it was > 20000 nM; in experiment [9], > 20000 nM.
